# Assay results as given in patent US20260109707A1, “HETEROBIFUNCTIONAL COMPOUNDS AND METHODS OF TREATING DISEASE” (Halda Therapeutics OpCo. Inc., priority 2022, published 2026).
# Like-named read-outs stand apart in the source and are kept apart here.
# Key:
# [1] = tested on: T-Rex 293 cell line SC3 cells having increased expression of androgen receptor protein due to exposure to doxycycline; test: Cellular growth inhibition assay, T-Rex 293 SC3 cells with doxycycline (CellTiter-Glo, 72 hours); assay type: cell-based; details: T-Rex 293 SC3 cells with increased androgen receptor expression due to doxycycline (10 ng/mL)
# Outline: (§1)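 Growth inhibition is measured in an inducible AR-expressing T-Rex 293 clone, SC3, cultured with or without 10 ng/mL doxycycline in hormone-depleted medium. Test compounds are applied for 72 hours. GI50 values derive from CellTiter-Glo 2.0 signal fitted by four-parameter regression.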
# [2] = tested on: T-Rex 293 cell line SC3 cells lacking increased expression of androgen receptor protein; test: Cellular growth inhibition assay, T-Rex 293 SC3 cells without doxycycline (CellTiter-Glo, 72 hours); assay type: cell-based; details: T-Rex 293 cell line SC3 cells not exposed to doxycycline (lacking increased androgen receptor expression)
# Outline: as §1
# VCaP cells = test: Cellular growth inhibition assay for VCaP cells (CellTiter-Glo, 72 hours); assay type: cell-based, human
# Outline: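 Luminescent viability signal after 72 h of compound exposure gave GI50 values by four-parameter nonlinear regression. Compounds were added in 0.5% DMSO to cells plated 24 h earlier at 5000/well in DMEM containing 10% FBS.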
SMILES,"GI50 (VCaP cells; Homo sapiens, VCaP, 72 h)",GI50 (VCaP cells),GI50 ([1]; 72 h),GI50 ([2]; 72 h),GI50 [1],GI50 [2]
Cc1sc2c(c1C)C(c1ccc(OC3CC(CC4CCN(c5ccc(C(=O)N[C@H]6CC[C@H](Oc7ccc(C#N)c(Cl)c7)CC6)nn5)CC4)C3)cc1)=NC1(CC1)c1nnc(C)n1-2 (stereo partly drawn) [I-528],< 500 nM,–,< 500 nM,> 3000 nM,–,–
Cc1sc2c(c1C)C(c1ccc(OC3CC(CC4CCN(c5ccc(C(=O)N[C@H]6CC[C@H](Oc7ccc(C#N)c(Cl)c7)CC6)nn5)CC4)C3)cc1)=NC1(CC1)c1nnc(C)n1-2 (stereo partly drawn) [I-529],–,< 500 nM,–,–,< 500 nM,> 3000 nM
CC[C@@H]1N=C(c2ccc(N3CCC4(CC3)CCN(c3ccc(C(=O)N[C@H]5CC[C@H](Oc6ccc(C#N)c(Cl)c6)CC5)nn3)C4)cc2)c2c(sc(C)c2C)-n2c(C)nnc21 [I-530],> 3000 nM,–,< 500 nM,< 500 nM,–,–
CC[C@@H]1N=C(c2ccc(C#CC3CC4(C3)CN(c3ccc(C(=O)N[C@H]5CC[C@H](Oc6ccc(C#N)c(Cl)c6)CC5)nn3)C4)cc2)c2c(sc(C)c2C)-n2c(C)nnc21 [I-531],< 500 nM,–,< 500 nM,< 500 nM,–,–
Cc1sc2c(c1C)C(c1ccc(C3CCC4(CC3)CCN(c3ccc(C(=O)N[C@H]5CC[C@H](Oc6ccc(C#N)c(Cl)c6)CC5)nn3)CC4)cc1)=NC1(CC1)c1nnc(C)n1-2 [I-532],< 500 nM,–,< 500 nM,> 3000 nM,–,–
Cc1sc2c(c1C)C(c1ccc(C3CCC4(CC3)CCN(c3ccc(C(=O)N[C@H]5CC[C@H](Oc6ccc(C#N)c(Cl)c6)CC5)nn3)C4)nc1)=N[C@@H](C)c1nnc(C)n1-2 (stereo partly drawn) [I-533],–,< 500 nM,< 500 nM,< 500 nM,–,–
Cc1sc2c(c1C)C(c1ccc(C3CCC4(CC3)CCN(c3ccc(C(=O)N[C@H]5CC[C@H](Oc6ccc(C#N)c(Cl)c6)CC5)nn3)C4)nc1)=N[C@@H](C)c1nnc(C)n1-2 (stereo partly drawn) [I-534],–,> 3000 nM,–,–,< 500 nM,< 500 nM
Cc1sc2c(c1C)C(c1ccc(OC3CCC4(CCCN(c5ccc(C(=O)N[C@H]6CC[C@H](Oc7ccc(C#N)c(Cl)c7)CC6)nn5)C4)C3)cc1)=N[C@@H](C)c1nnc(C)n1-2 (stereo partly drawn) [I-536],–,> 3000 nM,< 500 nM,> 3000 nM,–,–
Cc1sc2c(c1C)C(c1ccc(OC3CCC4(CCCN(c5ccc(C(=O)N[C@H]6CC[C@H](Oc7ccc(C#N)c(Cl)c7)CC6)nn5)C4)C3)cc1)=N[C@@H](C)c1nnc(C)n1-2 (stereo partly drawn) [I-537],–,> 3000 nM,–,–,< 500 nM,> 3000 nM
Cc1sc2c(c1C)C(c1ccc(OC3CCC4(CCCN(c5ccc(C(=O)N[C@H]6CC[C@H](Oc7ccc(C#N)c(Cl)c7)CC6)nn5)C4)C3)cc1)=N[C@@H](C)c1nnc(C)n1-2 (stereo partly drawn) [I-538],–,< 500 nM,–,–,< 500 nM,> 3000 nM
Cc1sc2c(c1C)C(c1ccc(OC3CCC4(C3)CN(c3ccc(C(=O)N[C@H]5CC[C@H](Oc6ccc(C#N)c(Cl)c6)CC5)nn3)CCO4)cc1)=N[C@@H](C)c1nnc(C)n1-2 (stereo partly drawn) [I-539],–,500 to 1500 nM,< 500 nM,–,–,> 3000 nM
Cc1sc2c(c1C)C(c1ccc(OC3CCC4(C3)CN(c3ccc(C(=O)N[C@H]5CC[C@H](Oc6ccc(C#N)c(Cl)c6)CC5)nn3)CCO4)cc1)=N[C@@H](C)c1nnc(C)n1-2 (stereo partly drawn) [I-540],–,1500 to 3000 nM,–,–,< 500 nM,< 500 nM
Cc1sc2c(c1C)C(c1ccc(OC3CCC4(C3)CN(c3ccc(C(=O)N[C@H]5CC[C@H](Oc6ccc(C#N)c(Cl)c6)CC5)nn3)CCO4)cc1)=N[C@@H](C)c1nnc(C)n1-2 (stereo partly drawn) [I-541],–,> 3000 nM,–,–,< 500 nM,< 500 nM
Cc1sc2c(c1C)C(c1ccc(OC3CCC4(C3)CN(c3ccc(C(=O)N[C@H]5CC[C@H](Oc6ccc(C#N)c(Cl)c6)CC5)nn3)CCO4)cc1)=N[C@@H](C)c1nnc(C)n1-2 (stereo partly drawn) [I-542],–,1500 to 3000 nM,–,–,< 500 nM,< 500 nM
Cc1sc2c(c1C)C(c1ccc(OC3CC(CC4CCN(c5ccc(C(=O)N[C@H]6CC[C@H](Oc7ccc(C#N)c(Cl)c7)CC6)nn5)CC4)C3)cc1)=N[C@@H](C)c1nnc(C)n1-2 (stereo partly drawn) [I-543],< 500 nM,–,< 500 nM,> 3000 nM,–,–
Cc1sc2c(c1C)C(c1ccc(OC3CC(CC4CCN(c5ccc(C(=O)N[C@H]6CC[C@H](Oc7ccc(C#N)c(Cl)c7)CC6)nn5)CC4)C3)cc1)=N[C@@H](C)c1nnc(C)n1-2 (stereo partly drawn) [I-544],–,< 500 nM,–,–,< 500 nM,> 3000 nM

# Now from value to compound, other results behind:
"GI50 (VCaP cells; Homo sapiens, VCaP, 72 h)",GI50 (VCaP cells),SMILES,GI50 ([1]; 72 h),GI50 ([2]; 72 h),GI50 [1],GI50 [2]
< 500 nM,–,Cc1sc2c(c1C)C(c1ccc(N3CC4(CC(C#Cc5ccc(C(=O)N[C@H]6CC[C@H](Oc7ccc(C#N)c(Cl)c7)CC6)nn5)C4)C3)cc1)=N[C@@H](Cc1ncco1)c1nnc(C)n1-2 [I-545],< 500 nM,< 500 nM,–,–
500 to 1500 nM,–,Cc1sc2c(c1C)C(c1ccc(C#CC3CCC(Cc4ccc(C(=O)N[C@H]5CC[C@H](Oc6ccc(C#N)c(Cl)c6)CC5)nn4)CC3)cc1)=N[C@@H](Cc1ncco1)c1nnc(C)n1-2 (stereo partly drawn) [I-546],< 500 nM,< 500 nM,–,–
1500 to 3000 nM,–,Cc1sc2c(c1C)C(c1ccc(CCC3CC4(CCCN(c5ccc(C(=O)N[C@H]6CC[C@H](Oc7ccc(C#N)c(Cl)c7)CC6)nn5)C4)C3)cc1)=NCc1nnc(C)n1-2 (stereo partly drawn) [I-548],< 500 nM,< 500 nM,–,–
–,> 3000 nM,Cc1sc2c(c1C)C(c1ccc(N3CCC4CN(c5ccc(C(=O)N[C@H]6CC[C@H](Oc7ccc(C#N)c(Cl)c7)CC6)nn5)CCC4C3)cc1)=NC1(CC1)c1nnc(C)n1-2 (stereo partly drawn) [I-549],< 500 nM,–,–,< 500 nM
< 500 nM,–,Cc1sc2c(c1C)C(c1ccc(N3CC(C4CCN(c5ccc(C(=O)N[C@H]6CC[C@H](Oc7ccc(C#N)c(Cl)c7)CC6)nn5)C4)C3)cc1)=NC1(CC1)c1nnc(C)n1-2 (stereo partly drawn) [I-550],< 500 nM,–,–,< 500 nM
–,< 500 nM,Cc1sc2c(c1C)C(c1ccc(N3CC(C4CCN(c5ccc(C(=O)N[C@H]6CC[C@H](Oc7ccc(C#N)c(Cl)c7)CC6)nn5)C4)C3)cc1)=NC1(CC1)c1nnc(C)n1-2 (stereo partly drawn) [I-551],–,–,< 500 nM,> 3000 nM
> 3000 nM,–,Cc1sc2c(c1C)C(c1ccc(C3CN(C4CCN(c5ccc(C(=O)N[C@H]6CC[C@H](Oc7ccc(C#N)c(Cl)c7)CC6)nn5)CC4)C3)cc1)=NC1(CC1)c1nnc(C)n1-2 [I-552],< 500 nM,1500 to 3000 nM,–,–
–,< 500 nM,Cc1sc2c(c1C)C(c1ccc(C3CCC4(CCN(c5ccc(C(=O)N[C@H]6CC[C@H](Oc7ccc(C#N)c(Cl)c7)CC6)nn5)CC4)C3)nc1)=N[C@@H](C)c1nnc(C)n1-2 (stereo partly drawn) [I-553],< 500 nM,–,–,< 500 nM
500 to 1500 nM,–,Cc1sc2c(c1C)C(c1ccc(N3CCC4CN(c5ccc(C(=O)N[C@H]6CC[C@H](Oc7ccc(C#N)c(Cl)c7)CC6)nn5)CCC4C3)cc1)=N[C@@H](C)c1nnc(C)n1-2 (stereo partly drawn) [I-554],< 500 nM,–,–,> 3000 nM
< 500 nM,–,Cc1sc2c(c1C)C(c1ccc(N3CC(C4CCN(c5ccc(C(=O)N[C@H]6CC[C@H](Oc7ccc(C#N)c(Cl)c7)CC6)nn5)C4)C3)cc1)=N[C@@H](C)c1nnc(C)n1-2 (stereo partly drawn) [I-555],< 500 nM,< 500 nM,–,–
–,< 500 nM,Cc1sc2c(c1C)C(c1ccc(N3CC(C4CCN(c5ccc(C(=O)N[C@H]6CC[C@H](Oc7ccc(C#N)c(Cl)c7)CC6)nn5)C4)C3)cc1)=N[C@@H](C)c1nnc(C)n1-2 (stereo partly drawn) [I-556],–,–,< 500 nM,< 500 nM
< 500 nM,–,Cc1sc2c(c1C)C(c1ccc(COC3CCC4(C3)CN(c3ccc(C(=O)N[C@H]5CC[C@H](Oc6ccc(C#N)c(Cl)c6)CC5)nn3)CCO4)cc1)=N[C@@H](C)c1nnc(C)n1-2 (stereo partly drawn) [I-557],< 500 nM,–,–,< 500 nM
–,< 500 nM,Cc1sc2c(c1C)C(c1ccc(COC3CCC4(C3)CN(c3ccc(C(=O)N[C@H]5CC[C@H](Oc6ccc(C#N)c(Cl)c6)CC5)nn3)CCO4)cc1)=N[C@@H](C)c1nnc(C)n1-2 (stereo partly drawn) [I-558],–,–,< 500 nM,< 500 nM
–,< 500 nM,Cc1sc2c(c1C)C(c1ccc(COC3CCC4(C3)CN(c3ccc(C(=O)N[C@H]5CC[C@H](Oc6ccc(C#N)c(Cl)c6)CC5)nn3)CCO4)cc1)=N[C@@H](C)c1nnc(C)n1-2 (stereo partly drawn) [I-559],–,–,< 500 nM,< 500 nM
1500 to 3000 nM,–,Cc1sc2c(c1C)C(c1ccc(C3CN(C4CCN(c5ccc(C(=O)N[C@H]6CC[C@H](Oc7ccc(C#N)c(Cl)c7)CC6)nn5)CC4)C3)cc1)=N[C@@H](C)c1nnc(C)n1-2 [I-560],< 500 nM,< 500 nM,–,–
